How the values were obtained:
[1] = test system: T4302 CD133+ cells; experiment: Trypan blue exclusion assay; assay type: cell-based, human; conditions: two days after 3-Gy radiation
Description: (§1) FIG. 2 is a series of graphs illustrating that γ-secretase inhibitors enhance radiation-induced cell death in glioma stem cells. (A) T4302 CD 133+ cells were pre-treated with DAPT or L685,458 for 4 hours and irradiated at 3 Gy. Percentage of dead cells was determined by trypan blue exclusion assay at 48 hours after radiation exposure. (B) T4302 CD 133+ cells were treated with GSIs ±radiation as indicated. Cells were then plated at 3000 cells per well in 96-well plates. Relative caspase 3/7 activities were determined by normalizing caspase activities to the corresponding cell titers. (C) T4302 CD 133+ cells were treated as described in FIG. 2A. 24 or 48 hours after radiation exposure, cells were labeled with FITC-conjugated Annexin V staining kit (BD Sciences) according to manufacturer's instructions and analyzed by flow cytometry. (D) T4302 CD 133+ cells were pre-treated with 2 μM DAPT for 4 hours, and were left unirradiated or irradiated at 1, 2 or 3 Gy. Relative caspase 3/7 activities were determined at 72 hours after radiation. (E) T4302 CD133+ cells were pre-treated with DAPT at indicated concentrations for 4 hours and irradiated at 3 Gy. Relative caspase activities were determined at 48 or 72 hours after radiation. *: p<0.01 by Student's t-test; #: p<0.01 by one-way ANOVA.

[2] = test system: T4302 CD133+ glioma stem cells; experiment: Growth curve, CellTiter-Glo Luminescent Cell Viability Assay; assay type: cell-based, human; conditions: without radiation treatment, day five; 2 μM DAPT or 0.5 μM L685,458
Text: (§2) FIG. 1 is a series of graphs illustrating that γ-secretase inhibitors reduce cell growth and clonogenic survival of glioma stem cells following radiation. (A) T4302 CD133+ glioma stem cells were transfected with a Notch-responsive luciferase reporter (RBP-JK reporter) pre-mixed with the vector directing constitutive expression of Renilla luciferase. Cells were left unirradiated or irradiated at 3 Gy, and were then collected to measure luciferase activities at time points as indicated. […] The relative mRNA levels of Hes2 were determined by quantitative real-time PCR at the time points as indicated. […] Total viable cell numbers were then determined by the CellTiter-Glo Luminescent Cell Viability Assay (Promega) for the following five days. […] Cells were then plated to form neurospheres, and the surviving fractions were determined as described in methods. […] (F,G) Neurosphere formation of T3359 and T4105 CD 133+ cells treated with GSIs alone, 3-Gy radiation alone, or the combination was determined as described in FIG. 1E. *: p<0.05 by Student's t-test; #: p<0.001 by one-way ANOVA.
Growth Curve, caspase 3/7 assay, and clonogenic survival assay. […] Cell number was measured for 5 days using the CellTiter-Glo assay kit (Promega, Madison, […].). […]

[3] = test system: Chk1 and Chk2; experiment: Immunoblotting of activating phosphorylation of Chk1 and Chk2; assay type: cell-based, human; conditions: following radiation, pretreated 24 hours
Description: (A) T4302 CD133+ cells were pretreated with DPAT or L685,458 for 24 hours prior radiation. One hour after radiation exposure, cells were harvested. The levels of activating phosphorylation of Chk1 and Chk2 were assessed by immunoblotting. (B) T4302 CD133+ cells were treated with 2 μM DAPT at 4, 24 hours prior to radiation (−24 hrs, or -4 hrs), or at 0, 4, 24 hours after radiation. Relative caspase 3/7 activities were measured 3 days after radiation exposure. *: p<0.001 by Student's t-test.
Antibodies, DNA constructs, lentiviruses and other reagents. The antibodies purchased from Cell Signaling Technology (Danvers, M A) include phosphor-S296-Chk1 (2349), total Chk1 (2345), phosphor-T68-Chk2 (2661), total Chk2 (2662), phospho-5473 Akt (#9271), total Akt (#9272), PTEN (#9556), phospho-S15-p53 (#9286), Bcl-2 (#2870), Bcl-xL (#2764), Mcl-1 (#4572), Puma (#4976). Other antibodies used in this study are p53 antibody (#sc-126, Santa Cruz Biotechnology, Santa Cruz, Calif.), and actin antibody (Millipore, Billerica, Mass.). The pcDNA3-Notch1 construct was kindly provided by Dr. Spyros Artavanis-Tsakonas, Harvard University. The coding sequences of intracellular domain of Notch1 (amino acid residues 1744-2556) was amplified by PCR and subcloned into the lentiviral vector pCDH-CMV-EF1-puro (System Biosciences, Mountain View, Calif.) through the EcoRI and NotI sites. […]

[4] = test system: T4302 CD133+ cells; experiment: Annexin V staining, flow cytometry; assay type: cell-based, human
Description: as §1

[5] = test system: Notch signaling; experiment: Notch-responsive luciferase reporter (RBP-Jκ reporter) assay; assay type: cell-based, human; conditions: T4302 CD133+ cells; 2 μM DAPT or 0.5 μM L685,458 over night
Text: as §2
Luciferase assay. […] The luciferase activities were determined by the Dual-luciferase assay system (Promega).

[6] = test system: CD133+ cells enriched from medulloblastoma cell lines; conditions: cited from earlier work

Compound | dead cells [1] [%] | sham-treated cells more than GSI-treated cells (total cell number) [2] [%] | activating phosphorylation of Chk1 or Chk2 [3] | Annexin V-positive labeled cells ([4]; 24 hours following 3 Gy radiation) | Annexin V-positive labeled cells ([4]; 48 hours following 3 Gy radiation) | Notch signaling in glioma stem cells (Notch-responsive luciferase reporter) [5] | apoptosis and differentiation in CD133+ cells [6] | apoptosis in nestin-expressing cells in comparison to nestin-negative cells [6] [fold] | tumorigenic capacity of CD133+ cells [6]
CC(C)C[C@H](NC(=O)[C@H](Cc1ccccc1)C[C@@H](O)[C@H](Cc1ccccc1)NC(=O)OC(C)(C)C)C(=O)N[C@@H](Cc1ccccc1)C(N)=O [L685,458] | 60 | 60 | Neither of DAPT or L685,458 significantly altered | not obvious | significantly increased | blocked | – | – | –
O=S(=O)(NC1[C@@H]2CC[C@H]1Cc1ccccc1C2)c1cccs1 (stereo partly drawn) [GSI-18] | – | – | – | – | – | – | induces apoptosis and differentiation | 10 | impairs the tumorigenic capacity
